Results reported in patent US20080311168A1, “PROCESS FOR COMBATING ACARIDS” (RHODIA CHIMIE, priority 2002, published 2008).

Key:
[1] = test system: dust mites (dermatophagoides pteronyssinus); experiment: Regulation of a dust mite population by powders (derived from AFNOR NF G 39-011), Example 12; type: in vivo; details: for Number of living acarids after 6 weeks, Mean: 5 g test powder + 5 g nutrient medium (food 1/NF G 39-011), 50 acarids placed, 4 repetitions; for CP (coefficient of regulation of the population of acarids), Mean: 6 weeks, versus sample without additive, 5 g test powder + 5 g nutrient medium, 0 = ineffective, 100 = eradication
Description: This characterization is carried out by a laboratory registered by the French Ministry of Agriculture, Fisheries and Food. The object is to evaluate the effectiveness of PA powders, to which ZnS may or may not have been added, on the regulation of the change in a population of dust mites (dermatophagoides pteronyssinus). Monitoring is carried out over two development cycles of the acarids, i.e. 6 weeks.
The acarids used originate from a laboratory strain raised on a substrate composed of a 50/50 (w/w) mixture of wheatgerm and of brewers yeast as specks graded by sieving (fragments of less than 1 mm). The temperature is between 23 and 25° C. and the relative humidity is maintained at 75% by the presence of a saturated ammonium sulphate solution. The screen is kept in darkness.
The screen is supplied by the Laboratoire des Insectes et Acariens des Denrees [Laboratory of the Insects and Acarids of Foodstuff] of the Institut National de Recherches Agronomiques (INRA) [National Institute of Agronomic Research] at Bordeaux, according to the AFNOR standard NF G 39-011.
The method is derived directly from the AFNOR standard NF G 39-011, with the following variations: • the experimental unit is composed of a chamber with a diameter of 8 cm which is escapeproof with regard to acarids but which allows ventilation and in which are found: • 5 g of nutrient medium (food 1/NF G 39-011 appendix) • 5 g of test powder, carpeting the bottom of the chamber • the study is carried out by placing 50 acarids in these devices • 4 repetitions are carried out on the same day per experimental factor, including for the control batches composed of the same device but without the addition of the powder. The result is expressed in the form of a mean and standard deviation with regard to these 4 samples.
The monitoring consists in counting the number of living acarids after the time period of 6 weeks. As direct counting is rendered impossible by the structure of the substrate, extraction by heat according to the recommendations of the AFNOR standard NF G 39-011 is used.
The criterion of effectiveness of an additive is then defined as the coefficient of regulation of the population of acarids (CP), i.e.:
The population counts are all carried out at 6 weeks.

[2] = test system: dust mites; experiment: Preventive test: acarids deposited on fitted carpet treated beforehand with ZnS powder, Example 14; type: in vivo, dermatophagoides pteronyssinus
Description: (§1) The object of this study is to evaluate the effectiveness of a powder intended to be applied to floor coverings in a curative and/or preventive treatment for combating populations of dust mites.
(§2) This characterization is carried out in the same laboratory which carried out the test of Example 12. The source of the acarids is identical.
(§3) The test comprises two parts: • a curative test by deposition of the product on an existing population of acarids, • a preventive test with deposition of acarids on surfaces of fitted carpets treated beforehand with the product.
(§4) Monitoring is carried out over a period of at least two cycles, i.e. 6 weeks, and in comparison with a population not subjected to the product.
(§5) The experimental method is derived from the experimental context of the AFNOR standard NF G 39-011.
(§6) The experimental unit is composed of a chamber with a diameter of 8 cm which is escapeproof with regard to the acarids but which allows ventilation and in which are found: • a piece of short-pile polyamide fitted carpet as floor • 5 g of nutrient medium (dust+skin scales) • the corresponding dose of the test powder.
(§7) • the product is mixed with the food and sprinkled with a salt cellar over pieces of acarid-free fitted carpets • one month later, approximately 50 active acarids are placed on the treated fitted carpets • 4 repetitions are carried out as experimental factor, including for the control batches composed of the same device but without the product (same control as for the curative test) • the product is applied at the rate of 10, 40, 80 and 160 mg/m^2 • counting of the population of acarids is carried out after incubating for 6 weeks under optimum development conditions. The monitorings consist in counting the number of living acarids after the time period of 4 or 6 weeks of incubation. The method of counting the acarids and the calculation of the coefficient of regulation of the population of acarids (CP) are identical to Example 12.
(§8) The population counts on controlled and treated are all carried out at the same number of weeks.

[3] = test system: dust mites; experiment: Curative test: ZnS powder deposited on fitted carpet holding an existing acarid population, Example 14; type: in vivo, dermatophagoides pteronyssinus
Description: as §1, §2, §3, §4, §5, §6
• approximately 50 active acarids are placed on the fitted carpets • the test product is mixed with the food and sprinkled with a salt cellar over the fitted carpet containing the acarids • 4 repetitions are carried out on the same day as experimental factor, including for the control batches composed of the same device but without the product • the product is applied at a rate of 160 mg/m^2 • 2 counts of the populations of acarids are carried out after incubating for 4 and 6 weeks under optimum development conditions.
as §7, §8

SMILES: [S-2].[Zn+2] [ZnS 2, ZnS]
- Number of living acarids after 6 weeks, Mean [1]: 305
- CP (coefficient of regulation of the population of acarids), Mean [1]: 65

SMILES: [S-2].[Zn+2] [ZnS 1, ZnS]
- Number of living acarids after 6 weeks, Mean [1]: 318
- CP (coefficient of regulation of the population of acarids), Mean [1]: 63
- CP 4 weeks, Mean ([2]; 10 mg/m^2, 4 weeks): 6
- CP 6 weeks, Mean ([2]; 10 mg/m^2, 6 weeks): 6
- Number of living acarids after 6 weeks, Mean ([2]; 10 mg/m^2, 6 weeks): 849
- Number of living acarids after 4 weeks, Mean ([2]; 10 mg/m^2, acarids placed one month after treatment, 4 weeks): 242
- CP 4 weeks, Mean ([2]; 40 mg/m^2, 4 weeks): 40
- Number of living acarids after 4 weeks, Mean ([2]; 40 mg/m^2, 4 weeks): 154
- CP 6 weeks, Mean ([2]; 40 mg/m^2, 6 weeks): 60
- Number of living acarids after 6 weeks, Mean ([2]; 40 mg/m^2, 6 weeks): 361
- CP 4 weeks, Mean ([2]; 80 mg/m^2, 4 weeks): 45
- Number of living acarids after 4 weeks, Mean ([2]; 80 mg/m^2, 4 weeks): 142
- CP 6 weeks, Mean ([2]; 80 mg/m^2, 6 weeks): 65
- Number of living acarids after 6 weeks, Mean ([2]; 80 mg/m^2, 6 weeks): 315
- CP 4 weeks, Mean ([2]; 160 mg/m^2, 4 weeks): 52
- Number of living acarids after 4 weeks, Mean ([2]; 160 mg/m^2, 4 weeks): 123
- CP 6 weeks, Mean ([2]; 160 mg/m^2, 6 weeks): 68
- Number of living acarids after 6 weeks, Mean ([2]; 160 mg/m^2, 6 weeks): 290
- Number of living acarids after 4 weeks, Mean ([3]; 160 mg/m^2, 4 weeks incubation): 148
- CP 4 weeks, Mean ([3]; 160 mg/m^2, 4 weeks, versus untreated carpet): 42
- Number of living acarids after 6 weeks, Mean ([3]; 160 mg/m^2, 6 weeks incubation): 284
- CP 6 weeks, Mean ([3]; 160 mg/m^2, 6 weeks, versus untreated carpet): 69
